# Test results from patent US9701690B2, “Myrtocomuloacetalone 1 as an anti-inflammatory agent” (priority 2014, dated 2017).
# Like-named read-outs stand apart in the source and are kept apart here.
# Experiments:
# superoxide (O−2) = assay: Oxidative burst, superoxide production; assay type: cell-based; conditions: for Oxidative burst % Inhibition O−2: 25 μg/Ml
# ROS (HOCl) = assay: Oxidative burst, ROS (HOCl) production (zymosan induced); assay type: cell-based
# T-cells = assay: T-cell proliferation; assay type: cell-based
# From the text: T Lymphocytes, the major key detector cells of the adaptive immune responses, differ entirely from those of innate immunity that includes free a radical generation system. However, the effector pathways overlap to a great extent. Therefore, they can play a leading role in the development of autoimmune disease related to oxidative stress.
# CC1 liver cells = assay: MTT assay, CC1 liver cell proliferation; assay type: cell-based, Wistar rat; conditions: 48 hours
# Experimental: FIG. 6 depicts the effect of myrtocomuloacetalone 1 on Wistar rat CC1 liver cell proliferation by MTT assay. CC1 liver cellline was incubated in the presence of three concentrations 25, 5 and 0.5 μg/mL of test compounds or without addition of compounds (−ve control) and in the presence of cytotoxic drug cyclohexamide (+ control).
# (§1) The effect of myrtocomuloacetalone 1 on cell viability was determined in MDBK, CC1, J774 and 3T3 Fibrobast cells and the IC50 for each line was calculated.
# MDBK kidney cells = assay: MTT assay, MDBK kidney cell proliferation; assay type: cell-based; conditions: 48 hours
# Experimental: FIG. 5 depicts the effect of myrtocomuloacetalone 1 on MDBK kidney cell proliferation by MTT assay. MDBK Kidney cell line was incubated in the presence of three concentrations 25, 5 and 0.5 μg/mL of test compounds or without addition of compounds (− test control) and in presence of cytotoxic drug cyclohexamide (+ control).
# as §1
# [1] = system: 3T3 mouse fibroblast cells; assay: MTT assay, 3T3 fibroblast cell proliferation; assay type: cell-based; conditions: 48 hours
# Experimental: FIG. 7 depicts the effect of myrtocomuloacetalone 1 on 3T3 mouse fibrobast cell proliferation by MTT assay. Fibrobast cell line was incubated in the presence of three concentrations (25, 5 and 0.5 μg/mL) of test compounds or without addition of compounds (−ye control) and in presence of cytotoxic drug cyclohexamide (+ control).
# as §1
# J774.2 macrophages = assay: MTT assay, J774.2 macrophage cell proliferation; assay type: cell-based, mouse; conditions: 48 hours
# Experimental: FIG. 8 depicts the effect of myrtocomuloacetalone 1 on J774.2 mouse macrophage cell proliferation by MIT assay. Macrophage cell line was incubated in the presence of three concentrations (25, 5 and 0.5 μg/mL) of test compounds or without addition of compounds (−ve control).
# as §1
# p38 = assay: LPS activated transcription factor p38; assay type: cell-based
# [2] = system: basal Nitric Oxide, U138MG cells; assay: Basal level of Nitric Oxide in neuronal cells (griess reagent); assay type: cell-based; conditions: 48 hours
# Experimental: FIG. 1 depicts the effect of myrtocomuloacetalone 1 on basal level of Nitric Oxide neuronal cells. U138MG cells were incubated in presence and absence of compound for 48 hours and supernatant was analyzed for the level of the presence of nitrite by griess reagent.
# Under normal physiological conditions, Nitric Oxide is necessary for normal vascular function because of its effect as a neurotransmitter. This kind of Nitric Oxide is called a basal level of Nitric Oxide, which is released by neuronal and endothelial synthases (Hattori, Kasai, and Gross 2004). The test compound […] in the basal level of Nitric Oxide released by the neuronal cell (FIG. 1).
# [3] = system: intracellular ROS in J774.2 cells; assay: Intracellular oxidative stress, DCFH dye, fluorescent microscopy; assay type: cell-based, mouse; conditions: PMA stimulant
# From the text: FIG. 4 depicts the intracellular oxidative stress examined by fluorescent microscopy. Mouse macrophage J774.2 cells, treated with phorbol myristate acetate (PMA) alone: positive control or in combination with compound. The cells were examined at 20× magnification under a green channel. Bright field images showing the total number of cells present in the same field were obtained under phase contrast at 20× magnification. Each image is representative of 3 individual experiments.
# In order to validate the above mentioned results, we also investigated the effect of compound on intracellular ROS levels by using 2′,7′-dichlorfluorescein (DCFH) dye, which mainly measures the H2O2 released into the intracellular environment. We employed PMA as a stimulant since PMA is known to activate the NADPH oxidase via protein kinase C pathway.
# [4] = system: Nitric Oxide release by J774.2 macrophages; assay: LPS-induced inflammatory Nitric Oxide release by macrophages (griess reagent); assay type: cell-based, mouse; conditions: J774.2, LPS, 48 hours
# Experimental: FIG. 2 depicts the effect of myrtocomuloacetalone 1 on inflammatory Nitric Oxide release by macrophages in response to LPS, macrophages. J774.2 cells were incubated in the presence or absence of compound for 48 hours and supernatant was detected for the presence of nitrite by griess reagent. The result was compared with known inhibitor of Nitric Oxide; LNMA (NG Monomethyl L arginine).
# During inflammation, the inducible form of nitric oxide synthase gets activated and causes the robust generation of Nitric Oxide that causes excessive vasodilation which results in hypotension and septic shock. In contrast, Nitric Oxide combined with superoxide (ROS generated during phagocytosis) leads to ONOO generation and eventually reduces the bioavailability of basal Nitric Oxide and therefore normal function of neurotransition will be halted. This effect mainly leads to vasoconstriction, hypertension and atherosclerosis. Current studies reveal that the compound is an inhibitor to the inflammatory Nitric Oxide released by the activated macrophages in cell culture supernatant. It is found to be a highly significant inhibitor Nitric Oxide with an IC50 value of <1 μg/mL (see FIG. 2).
# [5] = system: NF kappa B p65 in J774 cells; assay: LPS induced nuclear translocation of p65 subunit of NF kappa B; assay type: cell-based, mouse
# Experimental: FIG. 3 depicts the LPS induced nuclear translocation of p65 subunit of NF kappa B in J774 cells. Effect of myrtocomuloacetalone 1 at concentration 25 μg/mL. Arrows show no transcription factor inside nucleus at 25 μg/mL, whereas 5, 0.5 μg/mL has no effect on nuclear factor translocation as compared to positive control. The cells were examined at 20× magnification under TRITC and DAPI channel using a Nikon TE-2000 epifluorescence microscope. Merging was done using Adobe Photoshop.
# H2O2 = assay: Oxidative burst, hydrogen peroxide production; assay type: cell-based
compound,measurement,setting,value
"c1ccc([I+]c2ccccc2)cc1 [Diphenyliodonium, reference compound]",Oxidative burst % Inhibition O−2,superoxide (O−2),95%
"CC(C)Cc1ccc(C(C)C(=O)O)cc1 (stereo not shown) [Ibuprofen, reference compound]",IC50,ROS (HOCl); oxidative burst,11.7 ± 1.8 µg/mL
"C[C@]12C=CC(=O)C=C1CC[C@@H]1[C@@H]2[C@@H](O)C[C@@]2(C)[C@H]1CC[C@]2(O)C(=O)CO [Prednisolone, reference compound]",IC50,T-cells; T-cell,< 0.625 µg/mL
"C[C@@H]1C[C@@H]([C@H](O)CC2CC(=O)NC(=O)C2)C(=O)[C@@H](C)C1 [cycoxehamide, reference compound]","Cell viability IC50, CC1 liver cells",CC1 liver cells,0.02 ± 0.001 µg/mL
same,"Cell viability IC50, MDBK kidney cells",MDBK kidney cells,1.2 ± 0.4 µg/mL
same,"Cell viability IC50, 3T3 mouse fibroblasts",[1],0.13 µg/mL
myrtocomuloacetalone 1 [Myrtocomuloacetalone (1)],"Cell viability IC50, J774.2 macrophages",J774.2 macrophages,5 ± 0.8 µg/mL
same,"Cell viability IC50, CC1 liver cells",CC1 liver cells,4.6 ± 0.7 µg/mL
same,"Cell viability IC50, MDBK kidney cells",MDBK kidney cells,4.5 ± 1.1 µg/mL
same,Effect on transcription factor p38 activated by LPS,p38,remain unaffected
same,Effect on basal level of Nitric Oxide released by neuronal cell,[2],does change
same,PMA induced intracellular ROS generation,[3],inhibitory effects
same,"Inhibition of inflammatory Nitric Oxide released by activated macrophages, IC50",[4],< 1 µg/mL
same,"Cell viability IC50, 3T3 mouse fibroblasts",[1],6.53 ± 1.2 µg/mL
same,Effect on HOCl production,ROS (HOCl); oxidative burst,no effect
same,ROS (HOCl) (IC50),ROS (HOCl); oxidative burst,>100 µg/mL
same,Zymosan induced ROS production of mainly HOCl,ROS (HOCl); zymosan induced,not
same,Nuclear translocation of NF κB,[5]; 25 μg/mL,completely inhibits
same,Nuclear translocation of NF κB,"[5]; 5, 0.5 μg/mL",no effect
same,Oxidative burst % Inhibition O−2,superoxide (O−2),42.5%
same,Effect on superoxide production,superoxide (O−2); oxidative burst,profound effect
same,T-Cell proliferation (IC50),T-cells,<0.5 µg/mL
same,T-Cell proliferation (IC50),T-cells; listed as myrtocomuloacetalone 1,< 0.5 µg/mL
same,Oxidative burst % Inhibition H2O2,H2O2; 25 μg/Ml,53%
same,Effect on hydrogen peroxide production,H2O2; oxidative burst,profound effect
